{
  "source": "paper PMC2879341",
  "about": "(Chembiochem : a European journal of chemical biology, 2009)",
  "biological_target": "T1, GilR (Streptomyces griseoflavus, UniProt Q7X2G7)",
  "T1 sequence (Q7X2G7 1-498)": "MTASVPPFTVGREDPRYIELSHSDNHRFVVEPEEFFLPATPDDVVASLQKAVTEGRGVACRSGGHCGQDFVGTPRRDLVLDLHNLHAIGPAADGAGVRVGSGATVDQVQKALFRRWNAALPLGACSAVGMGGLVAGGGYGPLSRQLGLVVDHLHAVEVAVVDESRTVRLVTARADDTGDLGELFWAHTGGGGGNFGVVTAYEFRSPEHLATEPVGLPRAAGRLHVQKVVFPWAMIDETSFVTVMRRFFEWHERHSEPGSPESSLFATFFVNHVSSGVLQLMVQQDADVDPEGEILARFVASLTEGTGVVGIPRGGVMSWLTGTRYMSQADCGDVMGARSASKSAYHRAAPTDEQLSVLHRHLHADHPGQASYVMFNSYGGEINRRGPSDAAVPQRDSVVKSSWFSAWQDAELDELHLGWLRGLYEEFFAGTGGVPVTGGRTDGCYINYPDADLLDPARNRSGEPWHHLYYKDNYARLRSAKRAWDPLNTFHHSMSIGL",
  "assay": "UV spectrum of purified protein",
  "type": "binding",
  "conditions": "covalent",
  "data": [
    {"smiles": "Cc1cc2nc3c(=O)[nH]c(=O)nc-3n(C[C@H](O)[C@H](O)[C@H](O)COP(=O)(O)OP(=O)(O)OC[C@H]3O[C@@H](n4cnc5c(N)ncnc54)[C@H](O)[C@@H]3O)c2cc1C", "note": "[FAD]", "values": [
      {"measurement": "UV spectrum of purified protein; further analysis in supplement", "value": "FAD in fact is covalently bound to the enzyme (see the Supporting Information)"}
    ]}
  ]
}
